These results are taken from publication PMC7836687 (International Journal of Biological Macromolecules, 2020).

One series has as its system SARS-CoV-2. Type of series: cell-based, SARS-CoV-2 (βCoV/KOR/KCDC03/2020). The following applies: Severe acute respiratory syndrome coronavirus 2, Vero; for IC50: read-out: IC50 against SARS-CoV-2 infection.
For the next series, the system named is Vero cells. The following applies: at concentration 12.50 μM.
The conditions of series [1]: cited from earlier work.

By IC50 is commonly meant the concentration at which inhibition is half-maximal. As usually defined, the inhibition is the relative decrease from the control value, in per cent.

For `C=C(C)[C@@H]1CCC(C)=C[C@H]1c1c(O)cc(CCCCC)cc1O` [CBD, Cannabidiol], the IC50 in the series with SARS-CoV-2 was determined as 7.91 µM. Besides, the inhibition at 12.5 µM in the series with SARS-CoV-2 (read-out: inhibition of SARS-CoV-2 virus) is 99.2%. Further, the “Vero cell survival ratio” value in the series on Vero cells turned out to be 97.46%. The safe dose result in series [1] (humans, concluded from literature dosing) is “up to 60 mg per day”. Also, the “safety of a single oral dose” value in series [1] (single oral dose 100 mg, healthy volunteers) is “safe and tolerable”.

As to `C=C(C)[C@@H]1CCC(C)=C[C@H]1c1c(O)cc(CCCCC)c(C(=O)O)c1O` [CBDA, Cannabidiolic acid], the IC50 in the series with SARS-CoV-2 came to 37.6 µM.

With `CCCCCc1cc(O)c2c(c1)OC(C)(C)c1ccc(C)cc1-2` [CBN, Cannabinol], the IC50 with SARS-CoV-2 came out at 11.1 µM.

On to `CCN(CC)CCCC(C)Nc1ccnc2cc(Cl)ccc12` (centres unmarked) [chloroquine, reference compound], for which, in the series on SARS-CoV-2, the IC50 was found to be 9.78 µM.

`Cc1cccc(C)c1OCC(=O)N[C@@H](Cc1ccccc1)[C@@H](O)C[C@H](Cc1ccccc1)NC(=O)[C@H](C(C)C)N1CCCNC1=O` [lopinavir, reference compound]: in the series on SARS-CoV-2, the IC50 was 13.2 µM.

For `CCC(CC)COC(=O)[C@H](C)N[P@](=O)(OC[C@H]1O[C@@](C#N)(c2ccc3c(N)ncnn23)[C@H](O)[C@@H]1O)Oc1ccccc1` [remdesivir, reference compound], the IC50 in the series with SARS-CoV-2 is 8.17 µM.

On to `CCCCCc1cc(O)c2c(c1)OC(C)(C)[C@@H]1CCC(C)=C[C@@H]21` [Δ^9-THC, Δ^9-tetrahydrocannabinol], for which the IC50 with SARS-CoV-2 was found to be 10.2 µM.
